Source: patent US20100095396A1, “METHOD FOR INCREASING THE DRY BIOMASS OF PLANTS” (priority 2006, published 2010)

Columns and labels:
[1] = system: Corn; experiment: Increase of the dry biomass of corn plants after seed treatment; type: in vivo; settings: harvested 37 days after emergence, dried at 110° C., free disease conditions
Source text: (§1) Treatment with fipronil or fipronil+alpha-cypermethrin under free disease conditions
(§2) Corn was cultivated under customary conditions at Campinas (Brazil) in 2005/2006. A part of the seeds of the test plants had beforehand been treated with fipronil. Another part of the seeds of the plants had beforehand been treated with a mixture of fipronil and alpha-cypermethrin. 37 days after the emergence of the plants, the plants and their roots were harvested. The leaves and the roots were completely dried in an oven at 110° C. and then weighed.

[2] = system: Soybean; experiment: Increase of the dry biomass of soybean plants after seed treatment; type: in vivo; settings: harvested 35 days after emergence, dried at 110° C., free disease conditions
Source text: as §1
as §2, with “Soybean” for “Corn”, “35” for “37”

N#Cc1nn(-c2c(Cl)cc(C(F)(F)F)cc2Cl)c(N)c1[S+]([O-])C(F)(F)F (stereo not drawn) [Fipronil, 5-amino-1-(2,6-dichloro-α,α,α-trifluoro-p-tolyl)-4-trifluoromethylsulfinylpyrazole-3-carbonitrile]
Dry weight leaves [1]: 23.38 | Dry weight roots [1]: 41.27 | Dry weight leaves [2]: 13.15 | Dry weight roots [2]: 15.6
